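All cell lines were grown in 96-well plates and treated with compound for 48 hours. The concentration for 50% growth inhibition is given as GI50.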 Active and inactive are the calls of the source. Rule as the data show it: active = GI50 up to about 1.1 µM and inactive = higher.
Tests used:
Assay in all cases: NCI-60 cell line screen, 48 h
[1] = test system: UO-31
[2] = test system: NCI-H522
[3] = test system: OVCAR-3
[4] = test system: A498
[5] = test system: SK-OV-3
[6] = test system: SK-MEL-28
[7] = test system: HT-29
[8] = test system: SNB-75
[9] = test system: K562
[10] = test system: OVCAR-5
[11] = test system: NCI-H23
[12] = test system: UACC-257
[13] = test system: SF-539
[14] = test system: SNB-19
[15] = test system: COLO 205
[16] = test system: SR
[17] = test system: LXFL 529
[18] = test system: M19-MEL
[19] = test system: DMS-114
[20] = test system: OVCAR-4
[21] = test system: U-251
[22] = test system: CCRF-CEM
[23] = test system: RXF 393
[24] = test system: HOP-62
[25] = test system: SK-MEL-2
[26] = test system: KM12
[27] = test system: SF-268
[28] = test system: M14
[29] = test system: KM-20L2
[30] = test system: NCI-H460
[31] = test system: MOLT-4
[32] = test system: UACC-62
[33] = test system: HL-60
[34] = test system: SF-295
[35] = test system: SNB-78
[36] = test system: RPMI-8226
[37] = test system: IGROV-1
[38] = test system: ACHN
[39] = test system: HOP-92
[40] = test system: 786-0
[41] = test system: DLD-1
[42] = test system: OVCAR-8
[43] = test system: A549
[44] = test system: SK-MEL-5
[45] = test system: HCT-116
[46] = test system: LOX IMVI
[47] = test system: SN12C
[48] = test system: CAKI-1
[49] = test system: HCT-15
[50] = test system: Malme-3M
[51] = test system: TK-10
[52] = test system: HOP-18
[53] = test system: EKVX
[54] = test system: HCC 2998
[55] = test system: NCI-H226
[56] = test system: DMS-273
[57] = test system: SW-620
[58] = test system: XF498

For `CCO[C@@H]1OC(=O)[C@](C)(C(C)=O)[C@@H]1C`, the GI50 [1] was > 100 µM (inactive), the GI50 [2] was > 100 µM (inactive) and the GI50 [3] was 29 µM (inactive). For the same molecule, the GI50 [4] was > 100 µM (inactive), the GI50 [5] was 59 µM (inactive) and the GI50 [6] was 37.5 µM (inactive). The GI50 [7] was 68.4 µM (inactive), the GI50 [8] was 0.21 µM (active) and the GI50 [9] was 44.2 µM (inactive). For the same molecule, the GI50 [10] was > 100 µM (inactive), the GI50 [11] was 16.8 µM (inactive) and the GI50 [12] was > 100 µM (inactive). For the same molecule, the GI50 [13] was 23.1 µM (inactive), the GI50 [14] was 75.3 µM (inactive) and the GI50 [15] was > 100 µM (inactive). The GI50 [16] was 27.9 µM (inactive), the GI50 [17] was 40.6 µM (inactive) and the GI50 [18] was 58.1 µM (inactive). For the same molecule, the GI50 [19] was 37.2 µM (inactive), the GI50 [20] was 71.9 µM (inactive) and the GI50 [21] was 34.4 µM (inactive). For the same molecule, the GI50 [22] was 14.7 µM (inactive), the GI50 [23] was 41.5 µM (inactive) and the GI50 [24] was 43.2 µM (inactive). The GI50 [25] was 55.2 µM (inactive), the GI50 [26] was > 100 µM (inactive) and the GI50 [27] was 14.7 µM (inactive). The GI50 [28] was 67 µM (inactive), the GI50 [29] was > 100 µM (inactive) and the GI50 [30] was > 100 µM (inactive). For the same molecule, the GI50 [31] was 23.3 µM (inactive), the GI50 [32] was 57.8 µM (inactive) and the GI50 [33] was 17.9 µM (inactive). The GI50 [34] was 36.8 µM (inactive), the GI50 [35] was 33.7 µM (inactive) and the GI50 [36] was 18.8 µM (inactive). For the same molecule, the GI50 [37] was > 100 µM (inactive), the GI50 [38] was > 100 µM (inactive) and the GI50 [39] was 27.5 µM (inactive).

In the case of `COC(=O)c1cccc2c3ccccc3c3ccccc3c12`, the GI50 [40] is reported as 42.8 µM (inactive), the GI50 [41] is reported as 65.9 µM (inactive) and the GI50 [1] is reported as 39.9 µM (inactive). For the same molecule, the GI50 [2] was 36.4 µM (inactive), the GI50 [42] was 24.4 µM (inactive) and the GI50 [3] was 21.4 µM (inactive). The GI50 [4] was 20.2 µM (inactive), the GI50 [5] was 37.2 µM (inactive) and the GI50 [43] was 44.5 µM (inactive). The GI50 [44] was 30.1 µM (inactive), the GI50 [45] was 37.8 µM (inactive) and the GI50 [46] was 29.4 µM (inactive). The GI50 [6] was 41.5 µM (inactive), the GI50 [7] was 29.5 µM (inactive) and the GI50 [8] was 26.9 µM (inactive). For the same molecule, the GI50 [9] was 29 µM (inactive), the GI50 [10] was 49.1 µM (inactive) and the GI50 [47] was 45.4 µM (inactive). The GI50 [11] was 23.1 µM (inactive), the GI50 [48] was 40.4 µM (inactive) and the GI50 [49] was 35.2 µM. For the same molecule, the GI50 [12] was 38.3 µM (inactive), the GI50 [14] was 30.4 µM (inactive) and the GI50 [15] was 16.6 µM (inactive). The GI50 [16] was 36.8 µM (inactive), the GI50 [50] was 73.5 µM (inactive) and the GI50 [17] was 28 µM (inactive). For the same molecule, the GI50 [18] was 51.2 µM (inactive), the GI50 [19] was 29.4 µM (inactive) and the GI50 [20] was 64.3 µM (inactive). The GI50 [21] was 26.1 µM (inactive), the GI50 [51] was 46.5 µM (inactive) and the GI50 [22] was 27.5 µM (inactive). For the same molecule, the GI50 [23] was 24 µM (inactive), the GI50 [24] was > 100 µM (inactive) and the GI50 [25] was 24.8 µM (inactive). The GI50 [52] was 26.9 µM (inactive), the GI50 [26] was 39.5 µM (inactive) and the GI50 [53] was > 100 µM (inactive). The GI50 [27] was 37.2 µM (inactive), the GI50 [28] was 28.5 µM (inactive) and the GI50 [29] was 41.8 µM (inactive). The GI50 [54] was 43.1 µM (inactive), the GI50 [55] was > 100 µM (inactive) and the GI50 [31] was 24.5 µM (inactive). For the same molecule, the GI50 [32] was 24.3 µM (inactive), the GI50 [33] was 23.3 µM (inactive) and the GI50 [56] was 33.3 µM (inactive). For the same molecule, the GI50 [34] was 26.6 µM (inactive), the GI50 [37] was 62.8 µM (inactive) and the GI50 [57] was 43.5 µM (inactive). For the same molecule, the GI50 [38] was 79.3 µM (inactive).

With `COC(=O)CC1NC(=O)C1C1(C)OCCO1` (stereo unspecified) the GI50 [40] was > 100 µM (inactive), the GI50 [41] was > 100 µM (inactive) and the GI50 [1] was > 100 µM (inactive). The GI50 [42] was > 100 µM (inactive), the GI50 [3] was > 100 µM (inactive) and the GI50 [4] was > 100 µM (inactive). The GI50 [43] was > 100 µM (inactive), the GI50 [44] was > 100 µM (inactive) and the GI50 [45] was > 100 µM (inactive). For the same molecule, the GI50 [46] was > 100 µM (inactive), the GI50 [6] was > 100 µM (inactive) and the GI50 [7] was > 100 µM (inactive). For the same molecule, the GI50 [8] was 28 µM (inactive), the GI50 [47] was > 100 µM (inactive) and the GI50 [11] was > 100 µM (inactive). For the same molecule, the GI50 [49] was over 100 µM, the GI50 [12] was > 100 µM (inactive) and the GI50 [13] was > 100 µM (inactive). The GI50 [14] was > 100 µM (inactive), the GI50 [15] was > 100 µM (inactive) and the GI50 [16] was > 100 µM (inactive). For the same molecule, the GI50 [50] was > 100 µM (inactive), the GI50 [17] was > 100 µM (inactive) and the GI50 [18] was > 100 µM (inactive). For the same molecule, the GI50 [19] was > 100 µM (inactive), the GI50 [20] was > 100 µM (inactive) and the GI50 [21] was > 100 µM (inactive). For the same molecule, the GI50 [51] was > 100 µM (inactive), the GI50 [23] was > 100 µM (inactive) and the GI50 [24] was > 100 µM (inactive). For the same molecule, the GI50 [25] was > 100 µM (inactive), the GI50 [58] was > 100 µM (inactive) and the GI50 [53] was > 100 µM (inactive). For the same molecule, the GI50 [27] was > 100 µM (inactive), the GI50 [28] was > 100 µM (inactive) and the GI50 [29] was > 100 µM (inactive). The GI50 [30] was > 100 µM (inactive), the GI50 [54] was > 100 µM (inactive) and the GI50 [55] was > 100 µM (inactive). For the same molecule, the GI50 [32] was > 100 µM (inactive), the GI50 [33] was > 100 µM (inactive) and the GI50 [56] was > 100 µM (inactive). The GI50 [34] was > 100 µM (inactive), the GI50 [36] was > 100 µM (inactive) and the GI50 [37] was > 100 µM (inactive). For the same molecule, the GI50 [57] was > 100 µM (inactive) and the GI50 [38] was > 100 µM (inactive).

In the case of `S=C1NCCN1`, the GI50 [40] is reported as > 100 µM (inactive), the GI50 [41] is reported as > 100 µM (inactive) and the GI50 [1] is reported as > 100 µM (inactive). For the same molecule, the GI50 [2] was > 100 µM (inactive), the GI50 [42] was > 100 µM (inactive) and the GI50 [3] was > 100 µM (inactive). The GI50 [5] was > 100 µM (inactive), the GI50 [43] was > 100 µM (inactive) and the GI50 [44] was > 100 µM (inactive). For the same molecule, the GI50 [45] was > 100 µM (inactive), the GI50 [46] was > 100 µM (inactive) and the GI50 [6] was > 100 µM (inactive). For the same molecule, the GI50 [7] was > 100 µM (inactive), the GI50 [8] was > 100 µM (inactive) and the GI50 [9] was > 100 µM (inactive). The GI50 [10] was > 100 µM (inactive), the GI50 [47] was > 100 µM (inactive) and the GI50 [11] was > 100 µM (inactive). The GI50 [48] was > 100 µM (inactive), the GI50 [49] was over 100 µM and the GI50 [12] was > 100 µM (inactive). For the same molecule, the GI50 [13] was > 100 µM (inactive), the GI50 [14] was > 100 µM (inactive) and the GI50 [15] was > 100 µM (inactive). For the same molecule, the GI50 [16] was > 100 µM (inactive), the GI50 [50] was > 100 µM (inactive) and the GI50 [17] was > 100 µM (inactive). The GI50 [18] was > 100 µM (inactive), the GI50 [19] was > 100 µM (inactive) and the GI50 [20] was > 100 µM (inactive). The GI50 [21] was > 100 µM (inactive), the GI50 [51] was > 100 µM (inactive) and the GI50 [22] was > 100 µM (inactive). The GI50 [24] was > 100 µM (inactive), the GI50 [25] was > 100 µM (inactive) and the GI50 [26] was > 100 µM (inactive). The GI50 [58] was > 100 µM (inactive), the GI50 [53] was > 100 µM (inactive) and the GI50 [27] was > 100 µM (inactive). For the same molecule, the GI50 [28] was > 100 µM (inactive), the GI50 [29] was > 100 µM (inactive) and the GI50 [55] was > 100 µM (inactive). For the same molecule, the GI50 [31] was > 100 µM (inactive), the GI50 [32] was > 100 µM (inactive) and the GI50 [33] was > 100 µM (inactive). The GI50 [56] was > 100 µM (inactive), the GI50 [34] was > 100 µM (inactive) and the GI50 [35] was > 100 µM (inactive). The GI50 [36] was > 100 µM (inactive), the GI50 [37] was > 100 µM (inactive) and the GI50 [57] was > 100 µM (inactive). The GI50 [38] was > 100 µM (inactive) and the GI50 [39] was > 100 µM (inactive).
